Seven molecules from patent US6288091A, “Antiherpes virus compounds and methods for their preparation and use” (Boehringer Ingelheim Ltd., priority 1999, dated 2001) can be followed below.

Data set [1] relates to HSV-1 acyclovir-resistant mutant strain PAA^r 5. The data set is described as follows: Acyclovir-resistant HSV-1 cutaneous infection in immunodeficient nu/nu mice, strain PAAr 5. It is filed as in vivo, female nu/nu mice. Here is the method: (§1) Animals were cutaneously inoculated with 10^7 PFU pf HSV-1 acyclovir resistant mutant viruses. The resulting cutaneous lesions were scored according to a subjective scoring system. The compound of Group 1 (Entry No. 29 in table 1) was administered orally (gavage) in an acidified vehicle (0.033 N aqueous HCl, tid for 10 days). Animals were similarly treated with acyclovir in 0.033 N aqueous HCl or only with the vehicle (0.033 N aqueous HCl). […] The dose-dependent effect of treatment with Entry No. 29 at 25 mg/kg/day (-.diamond-solid.-), 50 mg/kg/day (-.tangle-solidup.-), 75 mg/kg/day (-.quadrature.-), 100 mg/kg/day (-.circle-solid.-) or 125 mg/kg/day (-.box-solid.-), compared to treatment with vehicle alone (-.smallcircle.-), is shown in FIG. 2. The ED50 of Entry No. 29 was about 60 mg/kg/day. Similar experiments were done using the HSV-1 acyclovir-resistant mutant strain dlsptk (FIGS. 3 and 4). […] The dose-dependent effect of treatment with Entry No. 29 at 25 mg/kg/day (-.diamond-solid.-), 50 mg/kg/day (-.tangle-solidup.-), 75 mg/kg/day (-.quadrature.-), 100 mg/kg/day (-.circle-solid.-) or 125 mg/kg/day (-.box-solid.-), compared to treatment with vehicle alone (-.smallcircle.-), is shown in FIG. 4. […]

In a further data set the test system is HSV-2 HG-52. The experiment in a line: Mouse genital model, vaginal HSV-2 infection, oral administration. It counts as in vivo, Swiss Webster mouse. As to conditions: Human alphaherpesvirus 2, 3 h, Group 1 Table 1 entries, commencing three hours post infection, read-out: ED50, reduction of viral pathology. The procedure: Antiviral activity for Group 1 compounds was also observed in the mouse genital model of R. W. Sidwell et al., supra. Vaginal HSV-2 infection in the Swiss Webster mouse was initiated by vaginal irritation and instillation of HSV-2 (HSV-2 HG-52, 1×10^7 PFU). Viral pathology was measured as described above.

The next data set addresses T1, HSV-1 helicase-primase (Human herpesvirus 1, UniProt P10189+P10236).
T1 construct: made in house; host or cells: Sf21 insect cells triply infected with recombinant baculoviruses (UL5, UL8, UL52)
The data set is described as follows: HSV-1 DNA-dependent ATPase assay (inhibition of HSV-1 helicase-primase). It is filed as biochemical. The method in brief: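 Holoenzyme (UL5/UL8/UL52) expressed in baculovirus-infected Sf21 cells and purified, used at 3 μg/mL with 4 mM ATP and 25 μM primed M13 ssDNA in HEPES pH 7.5, 5.5 mM MgCl2, 3.3% DMSO. Incubated 20 min at 34°. Released phosphate read by malachite green at 650 nm, and activity taken from net absorbance with versus without inhibitor.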

For a further data set, the system named is HSV-1 strain F or KOS. The data set is described as follows: Inhibition of herpes simplex virus (HSV-1) replication in cell culture (BHK-21 cells, glycoprotein C ELISA). It counts as cell-based. Summed up: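 BHK-21 clone 13 cells infected with HSV-1 F or KOS at MOI 0.05 PFU/cell for 1 h at 37°, washed, then treated with compound in α-MEM/2% FBS for 24 h. Late glycoprotein C quantified by ELISA (mAb C11, HRP/OPD, 450 nm); EC50 from % inhibition.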
Background: ELISA stands for enzyme-linked immunosorbent assay.

Data set [2] can be described thus: Inhibition of HCMV replication, ELISA assay (Hs-68 cells). It is filed as cell-based, Human Cytomegalovirus (HCMV). As to conditions: human, read-out: Cytotoxic at this concentration (footnote *, ELISA CMV column). The method in brief:
(§2)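 Hs-68 fibroblasts at 80–90% confluency infected with HCMV AD169 at MOI 0.01 PFU/cell for 2 h, washed, then cultured 8 days at 37 °C with test compound in DMEM/5% FBS. Late protein p28 detected by ELISA (mAb UL99, HRP/OPD, 450 nm); EC50 from % inhibition of replication.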

Data set [3] concerns HCMV (strain AD169). The description is as above. It counts as cell-based, Human Cytomegalovirus (HCMV). As to conditions: read-out: ELISA CMV EC50. The method in brief:
as §2

Data set [4] can be described thus: Inhibition of HCMV replication, plaque reduction assay (PRA, Hs-68 cells). It counts as cell-based, Human Cytomegalovirus (HCMV). The settings on record: human. The method in brief: (§3)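 Hs-68 monolayers (80–90% confluent) were infected with ~50 PFU HCMV AD169 for 2 h at 37°, then given compound in DMEM/5% inactivated FBS, refreshed after 4 days and kept 4 more days. Plaques were counted after formaldehyde fixation and crystal violet staining. EC50 derives from percent plaque reduction versus untreated wells.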
Background: Plaque reduction counts the foci of infection that form in a cell layer.

The subject of data set [5] is HCMV (strain AD169). Described as above. It is filed as cell-based, Human Cytomegalovirus (HCMV). As to conditions: read-out: PRA CMV EC50. The method in brief: as §3
Data set [6] deals with HSV-1 acyclovir-resistant mutant strain dlsptk. The experiment in a line: Acyclovir-resistant HSV-1 cutaneous infection in immunodeficient nu/nu mice, strain dlsptk. It counts as in vivo, female nu/nu mice. As to conditions: oral gavage 100 mg/kg/day, tid for 10 days; strain dlsptk (FIG. 3). The procedure:
as §1

Setting [7] is: Human betaherpesvirus 5, AD169, Hs68, Group 2 Table 2 entries.
The mark [8] stands for this setting: Human betaherpesvirus 5, AD169, Hs68, Group 1 Table 2 entries.
Where [9] appears, read: Human betaherpesvirus 5, AD169, Hs68, Group 1 Table 1 entries.

T1 sequence (P10192 whole entry): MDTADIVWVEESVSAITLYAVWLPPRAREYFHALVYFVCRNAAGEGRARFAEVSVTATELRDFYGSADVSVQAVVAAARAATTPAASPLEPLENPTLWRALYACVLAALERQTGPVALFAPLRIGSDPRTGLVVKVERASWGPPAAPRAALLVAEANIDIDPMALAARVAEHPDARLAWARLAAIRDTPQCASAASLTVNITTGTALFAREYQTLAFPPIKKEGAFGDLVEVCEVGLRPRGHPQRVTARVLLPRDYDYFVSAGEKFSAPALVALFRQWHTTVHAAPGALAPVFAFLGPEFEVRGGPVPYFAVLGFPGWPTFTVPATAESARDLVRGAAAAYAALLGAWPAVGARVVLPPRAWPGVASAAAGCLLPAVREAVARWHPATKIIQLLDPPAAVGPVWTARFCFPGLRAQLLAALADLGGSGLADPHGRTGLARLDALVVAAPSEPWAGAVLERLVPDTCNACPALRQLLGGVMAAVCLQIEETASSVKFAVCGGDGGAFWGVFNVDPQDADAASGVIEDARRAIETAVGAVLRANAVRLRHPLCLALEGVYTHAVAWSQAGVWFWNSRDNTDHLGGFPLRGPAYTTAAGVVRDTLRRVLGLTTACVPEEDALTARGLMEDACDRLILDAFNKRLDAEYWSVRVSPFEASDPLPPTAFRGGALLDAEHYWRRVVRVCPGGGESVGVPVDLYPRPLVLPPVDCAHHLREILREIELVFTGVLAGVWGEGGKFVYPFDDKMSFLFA
T1 sequence (P10236 whole entry): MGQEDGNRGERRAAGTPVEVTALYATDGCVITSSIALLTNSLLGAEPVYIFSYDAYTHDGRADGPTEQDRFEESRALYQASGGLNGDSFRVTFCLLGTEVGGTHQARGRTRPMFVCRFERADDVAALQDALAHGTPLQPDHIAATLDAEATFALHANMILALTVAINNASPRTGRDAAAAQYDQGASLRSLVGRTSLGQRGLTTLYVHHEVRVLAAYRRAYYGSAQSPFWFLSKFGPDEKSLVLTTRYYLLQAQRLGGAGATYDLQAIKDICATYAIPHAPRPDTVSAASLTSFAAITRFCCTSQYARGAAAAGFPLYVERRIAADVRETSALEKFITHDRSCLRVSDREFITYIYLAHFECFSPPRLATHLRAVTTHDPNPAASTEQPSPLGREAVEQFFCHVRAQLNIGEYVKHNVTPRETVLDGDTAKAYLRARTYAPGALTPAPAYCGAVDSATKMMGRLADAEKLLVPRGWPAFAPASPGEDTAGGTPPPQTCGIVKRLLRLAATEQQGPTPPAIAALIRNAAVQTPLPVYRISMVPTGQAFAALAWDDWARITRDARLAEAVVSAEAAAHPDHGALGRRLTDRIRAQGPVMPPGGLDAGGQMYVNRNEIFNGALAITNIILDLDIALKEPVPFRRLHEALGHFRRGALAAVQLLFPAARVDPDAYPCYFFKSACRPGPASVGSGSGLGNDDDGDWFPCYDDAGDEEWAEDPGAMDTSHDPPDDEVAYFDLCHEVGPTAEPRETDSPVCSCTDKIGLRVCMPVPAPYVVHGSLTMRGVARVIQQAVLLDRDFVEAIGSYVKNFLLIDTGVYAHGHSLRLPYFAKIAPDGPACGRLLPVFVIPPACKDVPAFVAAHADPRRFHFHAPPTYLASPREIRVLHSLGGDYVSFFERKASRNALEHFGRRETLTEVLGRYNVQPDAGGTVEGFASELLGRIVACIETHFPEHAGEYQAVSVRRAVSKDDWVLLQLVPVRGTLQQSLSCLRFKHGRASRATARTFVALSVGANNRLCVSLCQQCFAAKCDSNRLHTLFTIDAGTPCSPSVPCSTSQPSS
T1 sequence (P10189 whole entry): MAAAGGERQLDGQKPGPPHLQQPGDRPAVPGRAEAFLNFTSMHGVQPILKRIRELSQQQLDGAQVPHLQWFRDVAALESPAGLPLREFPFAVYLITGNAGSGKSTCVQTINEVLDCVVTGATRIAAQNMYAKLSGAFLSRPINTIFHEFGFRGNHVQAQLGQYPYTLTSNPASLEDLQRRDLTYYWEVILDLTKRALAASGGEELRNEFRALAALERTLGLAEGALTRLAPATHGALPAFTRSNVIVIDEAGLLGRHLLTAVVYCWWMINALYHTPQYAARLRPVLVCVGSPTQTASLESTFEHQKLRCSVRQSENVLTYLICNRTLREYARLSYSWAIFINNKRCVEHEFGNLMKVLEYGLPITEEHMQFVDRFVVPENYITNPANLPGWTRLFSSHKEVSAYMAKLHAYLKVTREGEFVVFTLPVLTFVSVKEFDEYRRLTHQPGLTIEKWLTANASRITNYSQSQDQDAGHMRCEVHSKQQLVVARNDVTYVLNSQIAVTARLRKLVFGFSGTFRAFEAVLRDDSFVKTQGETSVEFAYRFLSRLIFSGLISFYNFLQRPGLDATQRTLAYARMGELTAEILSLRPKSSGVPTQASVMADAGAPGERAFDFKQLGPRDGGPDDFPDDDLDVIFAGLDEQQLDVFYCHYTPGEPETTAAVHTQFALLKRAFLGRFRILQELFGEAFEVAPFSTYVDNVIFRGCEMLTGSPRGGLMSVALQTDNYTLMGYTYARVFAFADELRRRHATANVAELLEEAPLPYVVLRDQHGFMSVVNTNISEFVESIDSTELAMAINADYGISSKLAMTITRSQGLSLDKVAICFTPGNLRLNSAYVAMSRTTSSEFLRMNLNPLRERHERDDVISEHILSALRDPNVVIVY

As for `Nc1nc(-c2ccc(NC(=O)CN(Cc3ccccc3)C(=O)c3ccncc3)cc2)cs1` [Entry 29], the ED50 (in general, the dose at which the effect has come halfway, by size or by number of responders) in data set [1] (Human alphaherpesvirus 1, po, 240 h, read-out: ED50, cutaneous lesions) was roughly 60 mg/kg; with HSV-2 HG-52 it was 60 mg/kg.

`Nc1nc(-c2ccc(NC(=O)[C@H](Cc3ccccc3)NC(=O)C3CCCCC3)cc2)cs1` [Example 1]: half-maximal inhibition at HSV-1 helicase-primase (Group 1 Table 5 entries) (IC50) was put at 0.052 µM. Further, the concentration for a half-maximal effect (EC50) (commonly the concentration at which the effect is half-maximal) in the data set with HSV-1 strain F or KOS (Human alphaherpesvirus 1, BHK-21, Group 1 Table 5 entries) turned out to be 0.079 µM; in the data set with HCMV (strain AD169) [3] (Human betaherpesvirus 5, AD169, Hs68, Group 1 Table 5 entries), 14 µM. Besides, in data set [2] (Group 1 Table 5 entries), the MCC at 192 h worked out at 14 µM.

As to `Nc1nc(-c2ccc(NC(=O)C(=O)N(Cc3ccccc3)Cc3ccccc3)cc2)cs1` [Example 2], the EC50 in the data set with HSV-1 strain F or KOS (Human alphaherpesvirus 1, BHK-21, Group 2 Table 2 entries) worked out at 0.77 µM; with HCMV (strain AD169) [5] (setting [7]), 12 µM; with HCMV (strain AD169) [3] (setting [7]) it was 10 µM. For the same molecule, the MCC at 192 h in data set [4] (Group 2 Table 2 entries, read-out: Cytotoxic at this concentration (footnote *, PRA CMV)) was 12 µM.

Take `CC(C)(C)OC(=O)N(CCC(=O)Nc1ccc(-c2csc(N)n2)cc1)C1CCc2ccccc21` (stereo not drawn) [Example 13]: the EC50 in the data set on HSV-1 strain F or KOS (Human alphaherpesvirus 1, BHK-21, Group 1 Table 2 entries) was found to be 3.4 µM; with HCMV (strain AD169) [5] (setting [8]), 9 µM; in the data set with HCMV (strain AD169) [3] (setting [8]), 37 µM. Also, the MCC at 192 h in data set [4] (Group 1 Table 2 entries, read-out: Cytotoxic at this concentration (footnote, PRA CMV)) was determined as 9 µM.

With `CCCC(CCC)N(CC(=O)Nc1ccc(-c2csc(N)n2)cc1)C(=O)OC(C)(C)C` [Example 111], the midpoint of inhibition against HSV-1 helicase-primase (Group 1 Table 1 entries), the IC50, lay at 0.37 µM. For the same molecule, the EC50 with HSV-1 strain F or KOS (Human alphaherpesvirus 1, BHK-21, Group 1 Table 1 entries) is 0.24 µM; with HCMV (strain AD169) [3] (setting [9]) it was 4 µM. Further, the MCC at 192 h in [2] (Group 1 Table 1 entries) amounted to 4 µM.

In the case of `Cc1ccccc1CN(CC(=O)Nc1ccc(-c2csc(N)n2)cc1)C(=O)Cc1ccccn1` [Example 127], it took 0.99 µM to reach half-maximal inhibition at HSV-1 helicase-primase (Group 1 Table 1 entries) (IC50). In [4] (Group 1 Table 1 entries, read-out: Cytotoxic at this concentration (footnote *, PRA CMV)), the MCC at 192 h is 25 µM. For the same molecule, the EC50 worked out at 25 µM in the data set with HCMV (strain AD169) [5] (setting [9]) and 8.8 µM in the data set with HCMV (strain AD169) [3] (setting [9]).

For the molecule `Nc1nc2c(ncn2COCCO)c(=O)[nH]1` [acyclovir, reference compound], the “effect on cutaneous lesions” value in data set [6] is “no effect on cutaneous lesions”; in data set [1] (oral gavage 100 mg/kg/day, tid for 10 days, strain PAAr 5 (FIG. 1)) it was “no effect on cutaneous lesions”.
